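Five concentrations, 48 hours, 96-well plates. GI50: concentration for 50% inhibition of growth. The concentration for full growth arrest is given as TGI.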
Tests used:
Experiment in all cases: NCI tumour cell line growth inhibition, 48 h; in the data active means GI50 below about 0.43 µM; inactive means the rest
NCI-H460 lung = tested on: NCI-H460 lung
HCT-116 colon = tested on: HCT-116 colon
SF-268 CNS = tested on: SF-268 CNS
M14 melanoma = tested on: M14 melanoma
OVCAR-4 ovarian = tested on: OVCAR-4 ovarian
K-562 leukemia = tested on: K-562 leukemia
SK-MEL-28 melanoma = tested on: SK-MEL-28 melanoma
KM12 colon = tested on: KM12 colon
OVCAR-5 ovarian = tested on: OVCAR-5 ovarian
CAKI-1 renal = tested on: CAKI-1 renal
DU-145 prostate = tested on: DU-145 prostate
NCI-H226 lung = tested on: NCI-H226 lung
SK-MEL-5 melanoma = tested on: SK-MEL-5 melanoma
IGROV1 ovarian = tested on: IGROV1 ovarian
PC-3 prostate = tested on: PC-3 prostate
HCT-15 colon = tested on: HCT-15 colon
SF-295 CNS = tested on: SF-295 CNS
NCI-H23 lung = tested on: NCI-H23 lung
NCI-H522 lung = tested on: NCI-H522 lung
RXF 393 renal = tested on: RXF 393 renal
SNB-75 CNS = tested on: SNB-75 CNS
COLO 205 colon = tested on: COLO 205 colon
SR leukemia = tested on: SR leukemia
HOP-92 NSCLC = tested on: HOP-92 NSCLC
A549 NSCLC = tested on: A549 NSCLC
HL-60(TB) leukemia = tested on: HL-60(TB) leukemia
LOX IMVI melanoma = tested on: LOX IMVI melanoma
SNB-19 CNS = tested on: SNB-19 CNS
OVCAR-8 ovarian = tested on: OVCAR-8 ovarian
HT29 colon = tested on: HT29 colon
UACC-257 melanoma = tested on: UACC-257 melanoma
ACHN renal = tested on: ACHN renal
786-0 renal = tested on: 786-0 renal
T-47D breast = tested on: T-47D breast
NCI/ADR-RES ovarian = tested on: NCI/ADR-RES ovarian
MALME-3M melanoma = tested on: MALME-3M melanoma
SW-620 colon = tested on: SW-620 colon
EKVX NSCLC = tested on: EKVX NSCLC
A498 renal = tested on: A498 renal
U251 CNS = tested on: U251 CNS
CCRF-CEM leukemia = tested on: CCRF-CEM leukemia
BT-549 breast = tested on: BT-549 breast
UO-31 renal = tested on: UO-31 renal
RPMI-8226 leukemia = tested on: RPMI-8226 leukemia
MCF7 breast = tested on: MCF7 breast
HCC-2998 colon = tested on: HCC-2998 colon
HOP-62 NSCLC = tested on: HOP-62 NSCLC
HS 578T breast = tested on: HS 578T breast
TK-10 renal = tested on: TK-10 renal
SK-OV-3 ovarian = tested on: SK-OV-3 ovarian
MDA-MB-435 = tested on: MDA-MB-435
UACC-62 melanoma = tested on: UACC-62 melanoma
SK-MEL-2 melanoma = tested on: SK-MEL-2 melanoma
SN12C renal = tested on: SN12C renal
SF-539 CNS = tested on: SF-539 CNS
MOLT-4 leukemia = tested on: MOLT-4 leukemia
MDA-MB-231 breast = tested on: MDA-MB-231 breast
OVCAR-3 ovarian = tested on: OVCAR-3 ovarian

C#Cc1ccc(C(=O)NCc2ccc(/C=C/C(=O)c3nccn3C)cc2)cc1
10.7 µM: TGI (SNB-75 CNS) | TGI (HCC-2998 colon)
2.4 µM: TGI (LOX IMVI melanoma)
14.2 µM: TGI (RXF 393 renal)
9.03 µM: TGI (NCI-H460 lung)
13.2 µM: TGI (SF-295 CNS)
8.57 µM: TGI (KM12 colon)
12.2 µM: TGI (SF-268 CNS)
inactive: GI50 (NCI-H460 lung) 3.24 µM | GI50 (HCT-116 colon) 4.56 µM | GI50 (SF-268 CNS) 3.36 µM | GI50 (M14 melanoma) 7.91 µM | GI50 (OVCAR-4 ovarian) 5.71 µM | GI50 (K-562 leukemia) 3.21 µM | GI50 (SK-MEL-28 melanoma) 6.16 µM | GI50 (KM12 colon) 2.67 µM | GI50 (OVCAR-5 ovarian) 4.75 µM | GI50 (CAKI-1 renal) 5.97 µM | GI50 (DU-145 prostate) 4.83 µM | GI50 (NCI-H226 lung) 5.03 µM | GI50 (SK-MEL-5 melanoma) > 14.3 µM | GI50 (IGROV1 ovarian) 3.77 µM | GI50 (PC-3 prostate) 5.36 µM | GI50 (HCT-15 colon) 2.39 µM | GI50 (SF-295 CNS) 3.65 µM | GI50 (NCI-H23 lung) 3.48 µM | GI50 (NCI-H522 lung) 6.16 µM | GI50 (RXF 393 renal) 3.44 µM | GI50 (SNB-75 CNS) 2.19 µM | GI50 (COLO 205 colon) 3.6 µM | GI50 (SR leukemia) 0.93 µM | GI50 (HOP-92 NSCLC) 3.77 µM | GI50 (A549 NSCLC) 4.6 µM | GI50 (HL-60(TB) leukemia) 3.5 µM | GI50 (LOX IMVI melanoma) 0.543 µM | GI50 (SNB-19 CNS) 3.1 µM | GI50 (OVCAR-8 ovarian) 3.11 µM | GI50 (HT29 colon) 4.61 µM | GI50 (UACC-257 melanoma) > 14.3 µM | GI50 (ACHN renal) 4.8 µM | GI50 (786-0 renal) 4.48 µM | GI50 (T-47D breast) 6 µM | GI50 (NCI/ADR-RES ovarian) 3.67 µM | GI50 (MALME-3M melanoma) > 14.3 µM | GI50 (SW-620 colon) 4.31 µM | GI50 (EKVX NSCLC) 5.22 µM | GI50 (A498 renal) 2.12 µM | GI50 (U251 CNS) 2.15 µM | GI50 (CCRF-CEM leukemia) 3.68 µM | GI50 (BT-549 breast) 4.06 µM | GI50 (UO-31 renal) 3.91 µM | GI50 (RPMI-8226 leukemia) 2.37 µM | GI50 (MCF7 breast) 2.7 µM | GI50 (HCC-2998 colon) 3.32 µM | GI50 (HOP-62 NSCLC) 4.33 µM | GI50 (HS 578T breast) 4.75 µM | GI50 (TK-10 renal) 5.42 µM | GI50 (SK-OV-3 ovarian) 8.34 µM | GI50 (MDA-MB-435) 4.15 µM | GI50 (UACC-62 melanoma) 6.27 µM | GI50 (SK-MEL-2 melanoma) > 14.3 µM | GI50 (SN12C renal) 4.34 µM | GI50 (SF-539 CNS) 2.65 µM | GI50 (MOLT-4 leukemia) 4.2 µM | GI50 (MDA-MB-231 breast) 3.97 µM
> 14.3 µM: TGI (HCT-116 colon) | TGI (M14 melanoma) | TGI (OVCAR-4 ovarian) | TGI (K-562 leukemia) | TGI (SK-MEL-28 melanoma) | TGI (OVCAR-5 ovarian) | TGI (CAKI-1 renal) | TGI (DU-145 prostate) | TGI (NCI-H226 lung) | TGI (SK-MEL-5 melanoma) | TGI (IGROV1 ovarian) | TGI (PC-3 prostate) | TGI (HCT-15 colon) | TGI (NCI-H23 lung) | TGI (NCI-H522 lung) | TGI (SR leukemia) | TGI (HOP-92 NSCLC) | TGI (A549 NSCLC) | TGI (HL-60(TB) leukemia) | TGI (SNB-19 CNS) | TGI (HT29 colon) | TGI (UACC-257 melanoma) | TGI (ACHN renal) | TGI (786-0 renal) | TGI (T-47D breast) | TGI (NCI/ADR-RES ovarian) | TGI (MALME-3M melanoma) | TGI (SW-620 colon) | TGI (EKVX NSCLC) | TGI (A498 renal) | TGI (U251 CNS) | TGI (CCRF-CEM leukemia) | TGI (BT-549 breast) | TGI (UO-31 renal) | TGI (RPMI-8226 leukemia) | TGI (MCF7 breast) | TGI (HOP-62 NSCLC) | TGI (HS 578T breast) | TGI (TK-10 renal) | TGI (SK-OV-3 ovarian) | TGI (MDA-MB-435) | TGI (UACC-62 melanoma) | TGI (SK-MEL-2 melanoma) | TGI (SN12C renal) | TGI (MOLT-4 leukemia) | TGI (MDA-MB-231 breast)
12.7 µM: TGI (COLO 205 colon)
6.24 µM: TGI (SF-539 CNS)
8.27 µM: TGI (OVCAR-8 ovarian)

Cc1ccc(NC(=O)c2cc(/C=C/C(=O)NO)cc(C(F)(F)F)c2)cc1Nc1nccc(-c2cccnc2)n1
2.71 µM: TGI (HOP-92 NSCLC)
5.14 µM: TGI (CAKI-1 renal)
5.85 µM: TGI (MCF7 breast)
4.21 µM: TGI (OVCAR-3 ovarian)
5.09 µM: TGI (NCI-H226 lung)
3.43 µM: TGI (SF-295 CNS)
5.27 µM: TGI (SK-MEL-28 melanoma)
8.76 µM: TGI (RPMI-8226 leukemia)
5.83 µM: TGI (SNB-75 CNS)
3.01 µM: TGI (SK-MEL-5 melanoma)
6.63 µM: TGI (DU-145 prostate)
4.51 µM: TGI (MDA-MB-231 breast)
3.32 µM: TGI (SK-MEL-2 melanoma)
3.03 µM: TGI (U251 CNS)
inactive: GI50 (NCI-H460 lung) 2 µM | GI50 (SF-268 CNS) 2.35 µM | GI50 (M14 melanoma) 1.34 µM | GI50 (SK-MEL-28 melanoma) 1.56 µM | GI50 (CAKI-1 renal) 2.23 µM | GI50 (DU-145 prostate) 2.04 µM | GI50 (NCI-H226 lung) 1.78 µM | GI50 (SK-MEL-5 melanoma) 1.57 µM | GI50 (IGROV1 ovarian) 1.74 µM | GI50 (PC-3 prostate) 3.02 µM | GI50 (HCT-15 colon) 3.34 µM | GI50 (SF-295 CNS) 1.77 µM | GI50 (NCI-H522 lung) 1.35 µM | GI50 (RXF 393 renal) 1.66 µM | GI50 (SNB-75 CNS) 2.66 µM | GI50 (HOP-92 NSCLC) 0.58 µM | GI50 (HL-60(TB) leukemia) 1.08 µM | GI50 (LOX IMVI melanoma) 1.35 µM | GI50 (SNB-19 CNS) 2.7 µM | GI50 (OVCAR-8 ovarian) 1.44 µM | GI50 (UACC-257 melanoma) 1.32 µM | GI50 (ACHN renal) 3.12 µM | GI50 (786-0 renal) 2.41 µM | GI50 (T-47D breast) 1.41 µM | GI50 (NCI/ADR-RES ovarian) 44 µM | GI50 (MALME-3M melanoma) 0.58 µM | GI50 (SW-620 colon) 1.54 µM | GI50 (EKVX NSCLC) 3.48 µM | GI50 (A498 renal) 3.13 µM | GI50 (U251 CNS) 1.49 µM | GI50 (CCRF-CEM leukemia) 0.559 µM | GI50 (BT-549 breast) 3.3 µM | GI50 (RPMI-8226 leukemia) 2.11 µM | GI50 (MCF7 breast) 1.75 µM | GI50 (HCC-2998 colon) 1.76 µM | GI50 (HS 578T breast) 1.83 µM | GI50 (TK-10 renal) 2.98 µM | GI50 (SK-OV-3 ovarian) 1.83 µM | GI50 (MDA-MB-435) 1.53 µM | GI50 (SK-MEL-2 melanoma) 1.09 µM | GI50 (SN12C renal) 2.54 µM | GI50 (MDA-MB-231 breast) 1.14 µM | GI50 (OVCAR-3 ovarian) 1.52 µM
7.62 µM: TGI (SNB-19 CNS)
5.8 µM: TGI (T-47D breast)
8.5 µM: TGI (BT-549 breast)
6.65 µM: TGI (A498 renal)
4.68 µM: TGI (OVCAR-8 ovarian)
3.71 µM: TGI (M14 melanoma)
6.35 µM: TGI (HS 578T breast)
3.65 µM: TGI (RXF 393 renal)
3.56 µM: TGI (HCC-2998 colon)
3.73 µM: TGI (HL-60(TB) leukemia)
> 100 µM: TGI (PC-3 prostate) | TGI (HCT-15 colon) | TGI (ACHN renal) | TGI (NCI/ADR-RES ovarian) | TGI (EKVX NSCLC) | TGI (CCRF-CEM leukemia) | TGI (SN12C renal)
5.66 µM: TGI (SW-620 colon)
4.24 µM: TGI (MDA-MB-435)
3.78 µM: TGI (SK-OV-3 ovarian)
5.31 µM: TGI (786-0 renal)
3.24 µM: TGI (MALME-3M melanoma)
12.3 µM: TGI (NCI-H460 lung)
6.91 µM: TGI (TK-10 renal)
4.36 µM: TGI (IGROV1 ovarian)
3.02 µM: TGI (LOX IMVI melanoma)
3.19 µM: TGI (NCI-H522 lung)
5.7 µM: TGI (SF-268 CNS)
2.8 µM: TGI (UACC-257 melanoma)
